Results reported in PubChem BioAssay AID1259407 (Chemical Carcinogenesis Research Information System (CCRIS), 2018).
The source made the active and inactive calls. How the calls were made is not given here.

System: CCRIS mutagenicity, Ames/micronucleus/aberration tests
Assay: CCRIS mutagenicity studies

## O=[N+]([O-])c1ccc(O)c([N+](=O)[O-])c1
End Point: IN VITRO CHROMOSOMAL ABERRATIONS, Test System: CHO CELLS, Metabolic Activation: NONE
  mutagenic call: active; positive
End Point: IN VITRO CHROMOSOMAL ABERRATIONS, Test System: HUMAN PERIPHERAL LYMPHOCYTES, Metabolic Activation: NONE
  mutagenic call: active; positive
End Point: IN VITRO CHROMOSOMAL ABERRATIONS, Test System: TK6 HUMAN LYMPHOBLASTS, Metabolic Activation: NONE
  mutagenic call: inactive; negative
End Point: In vitro micronucleus, Test System: Mouse lymphoma L5178Y cells, Metabolic Activation: None
  mutagenic call: active; positive
Test System: AMES SALMONELLA TYPHIMURIUM, Strain/Indicator: TA97, Metabolic Activation: HAMSTER, LIVER, S-9, AROCLOR 1254 (10%), Method: PREINCUBATION
  mutagenic call: inactive; negative
Test System: AMES SALMONELLA TYPHIMURIUM, Strain/Indicator: TA97, Metabolic Activation: HAMSTER, LIVER, S-9, AROCLOR 1254 (30%), Method: PREINCUBATION
  mutagenic call: inactive; negative
Test System: AMES SALMONELLA TYPHIMURIUM, Strain/Indicator: TA97, Metabolic Activation: NONE, Method: PREINCUBATION
  mutagenic call: inactive; negative
Test System: AMES SALMONELLA TYPHIMURIUM, Strain/Indicator: TA97, Metabolic Activation: RAT, LIVER, S-9, AROCLOR 1254 (10%), Method: PREINCUBATION
  mutagenic call: inactive; negative
Test System: AMES SALMONELLA TYPHIMURIUM, Strain/Indicator: TA97, Metabolic Activation: RAT, LIVER, S-9, AROCLOR 1254 (30%), Method: PREINCUBATION
  mutagenic call: inactive; negative
Test System: AMES SALMONELLA TYPHIMURIUM, Strain/Indicator: TA98, Metabolic Activation: HAMSTER, LIVER, S-9, AROCLOR 1254 (10%), Method: PREINCUBATION
  mutagenic call: inactive; negative
Test System: AMES SALMONELLA TYPHIMURIUM, Strain/Indicator: TA98, Metabolic Activation: HAMSTER, LIVER, S-9, AROCLOR 1254 (30%), Method: PREINCUBATION
  mutagenic call: inactive; negative
Test System: AMES SALMONELLA TYPHIMURIUM, Strain/Indicator: TA98, Metabolic Activation: NONE, Method: PREINCUBATION
  mutagenic call: inactive; negative
Test System: AMES SALMONELLA TYPHIMURIUM, Strain/Indicator: TA98, Metabolic Activation: RAT, LIVER, S-9, AROCLOR 1254 (10%), Method: PREINCUBATION
  mutagenic call: inactive; negative
Test System: AMES SALMONELLA TYPHIMURIUM, Strain/Indicator: TA98, Metabolic Activation: RAT, LIVER, S-9, AROCLOR 1254 (30%), Method: PREINCUBATION
  mutagenic call: inactive; negative
Test System: AMES SALMONELLA TYPHIMURIUM, Strain/Indicator: TA98, Metabolic Activation: RAT, LIVER, S-9, KANECHLOR 500, Method: PREINCUBATION
  mutagenic call: inactive; negative
Test System: AMES SALMONELLA TYPHIMURIUM, Strain/Indicator: TA98, Metabolic Activation: RAT, LIVER, S-9, PHENOBARBITAL AND BETA-NAPHTHOFLAVONE, Method: PREINCUBATION
  mutagenic call: inactive; negative
Test System: AMES SALMONELLA TYPHIMURIUM, Strain/Indicator: TA100, Metabolic Activation: HAMSTER, LIVER, S-9, AROCLOR 1254 (10%), Method: PREINCUBATION
  mutagenic call: inactive; negative
Test System: AMES SALMONELLA TYPHIMURIUM, Strain/Indicator: TA100, Metabolic Activation: HAMSTER, LIVER, S-9, AROCLOR 1254 (30%), Method: PREINCUBATION
  mutagenic call: inactive; negative
Test System: AMES SALMONELLA TYPHIMURIUM, Strain/Indicator: TA100, Metabolic Activation: NONE, Method: PREINCUBATION
  mutagenic call: inactive; negative
Test System: AMES SALMONELLA TYPHIMURIUM, Strain/Indicator: TA100, Metabolic Activation: RAT, LIVER, S-9, AROCLOR 1254 (10%), Method: PREINCUBATION
  mutagenic call: inactive; negative
Test System: AMES SALMONELLA TYPHIMURIUM, Strain/Indicator: TA100, Metabolic Activation: RAT, LIVER, S-9, AROCLOR 1254 (30%), Method: PREINCUBATION
  mutagenic call: inactive; negative
Test System: AMES SALMONELLA TYPHIMURIUM, Strain/Indicator: TA100, Metabolic Activation: RAT, LIVER, S-9, KANECHLOR 500, Method: PREINCUBATION
  mutagenic call: inactive; negative
Test System: AMES SALMONELLA TYPHIMURIUM, Strain/Indicator: TA100, Metabolic Activation: RAT, LIVER, S-9, PHENOBARBITAL AND BETA-NAPHTHOFLAVONE, Method: PREINCUBATION
  mutagenic call: inactive; negative
Test System: AMES SALMONELLA TYPHIMURIUM, Strain/Indicator: TA102, Metabolic Activation: NONE, Method: PREINCUBATION
  mutagenic call: inactive; negative
Test System: AMES SALMONELLA TYPHIMURIUM, Strain/Indicator: TA102, Metabolic Activation: RAT, LIVER, S-9, PHENOBARBITAL AND BETA-NAPHTHOFLAVONE, Method: PREINCUBATION
  mutagenic call: inactive; negative
Test System: AMES SALMONELLA TYPHIMURIUM, Strain/Indicator: TA104, Metabolic Activation: NONE, Method: PREINCUBATION
  mutagenic call: inactive; negative
Test System: AMES SALMONELLA TYPHIMURIUM, Strain/Indicator: TA104, Metabolic Activation: RAT, LIVER, S-9, PHENOBARBITAL AND BETA-NAPHTHOFLAVONE, Method: PREINCUBATION
  mutagenic call: inactive; negative
Test System: AMES SALMONELLA TYPHIMURIUM, Strain/Indicator: TA1535, Metabolic Activation: HAMSTER, LIVER, S-9, AROCLOR 1254 (10%), Method: PREINCUBATION
  mutagenic call: inactive; negative
Test System: AMES SALMONELLA TYPHIMURIUM, Strain/Indicator: TA1535, Metabolic Activation: HAMSTER, LIVER, S-9, AROCLOR 1254 (30%), Method: PREINCUBATION
  mutagenic call: inactive; negative
Test System: AMES SALMONELLA TYPHIMURIUM, Strain/Indicator: TA1535, Metabolic Activation: RAT, LIVER, S-9, AROCLOR 1254 (10%), Method: PREINCUBATION
  mutagenic call: inactive; negative
Test System: AMES SALMONELLA TYPHIMURIUM, Strain/Indicator: TA1535, Metabolic Activation: RAT, LIVER, S-9, AROCLOR 1254 (30%), Method: PREINCUBATION
  mutagenic call: inactive; negative
Test System: AMES SALMONELLA TYPHIMURIUM, Strain/Indicator: TA1535, Metabolic Activation: RAT, LIVER, S-9, PHENOBARBITAL AND BETA-NAPHTHOFLAVONE, Method: PREINCUBATION
  mutagenic call: inactive; negative
Test System: AMES SALMONELLA TYPHIMURIUM, Strain/Indicator: TA1537, Metabolic Activation: HAMSTER, LIVER, S-9, AROCLOR 1254 (30%), Method: PREINCUBATION
  mutagenic call: inactive; negative
Test System: AMES SALMONELLA TYPHIMURIUM, Strain/Indicator: TA1537, Metabolic Activation: NONE, Method: PREINCUBATION
  mutagenic call: inactive; negative
Test System: AMES SALMONELLA TYPHIMURIUM, Strain/Indicator: TA1537, Metabolic Activation: RAT, LIVER, S-9, AROCLOR 1254 (30%), Method: PREINCUBATION
  mutagenic call: inactive; negative
Test System: AMES SALMONELLA TYPHIMURIUM, Strain/Indicator: TA1537, Metabolic Activation: RAT, LIVER, S-9, PHENOBARBITAL AND BETA-NAPHTHOFLAVONE, Method: PREINCUBATION
  mutagenic call: inactive; negative
Test System: E. COLI, Strain/Indicator: WP2UVRA/PKM101, Metabolic Activation: NONE, Method: PREINCUBATION
  mutagenic call: inactive; negative
Test System: E. COLI, Strain/Indicator: WP2UVRA/PKM101, Metabolic Activation: RAT, LIVER, S-9, PHENOBARBITAL AND BETA-NAPHTHOFLAVONE, Method: PREINCUBATION
  mutagenic call: inactive; negative
Test System: E. COLI, Strain/Indicator: WP2UVRA, Metabolic Activation: NONE, Method: PREINCUBATION
  mutagenic call: inactive; negative
Test System: E. COLI, Strain/Indicator: WP2UVRA, Metabolic Activation: RAT, LIVER, S-9, PHENOBARBITAL AND BETA-NAPHTHOFLAVONE, Method: PREINCUBATION
  mutagenic call: inactive; negative
Test System: Mouse lymphoma, Strain/Indicator: L5178Y (tk+/tk-)/Trifluorothymidine, Metabolic Activation: None, Method: Microtiter
  mutagenic call: active; positive
